# Square brackets hold non-standard residues; d marks the D form. Peptide text beside a SMILES is read from it. Phe(4-Cl) = N[C@@H](Cc1ccc(Cl)cc1)C(=O)O; Phe(3-F) = N[C@@H](Cc1cccc(F)c1)C(=O)O; Phe(2-F) = N[C@@H](Cc1ccccc1F)C(=O)O; Arg(Me) = CNC(=N)NCCC[C@H](N)C(=O)O; Dab = NCC[C@H](N)C(=O)O; azaGly = NNC(=O)O; βAla = NCCC(=O)O
# Target: T1, hOT7T175 (Homo sapiens, UniProt Q969F8)
# T1 construct: expressed in transfected cells
# Assay: Assay for intracellular Ca ion level-increasing activity using FLIPR
# Type: cell-based
# Conditions: hOT7T175/CHO cells, relative to Metastin (1-54)
# Procedure: In accordance with the method described in JPA 2000-312590, the intracellular Ca ion level-increasing activity was measured using FLIPR.
# The stable expression cell line hOT7T175 was obtained by transfection of the expression plasmid pAK-rOT175 for animal cells into CHO/dhfr^− cells, using CellPhect Transfection Kit (Amersham Pharmacia Biotech, Inc.). First, 240 μL of Buffer A (attached to CellPhect Transfection Kit) was added to 9.6 μg of plasmid DNA dissolved in 240 μL of distilled water followed by stirring. After the mixture was settled for 10 minutes, 480 μL of Buffer B (attached to CellPhect Transfection Kit) was added to the mixture, which was vigorously stirred to form liposomes containing the DNA. Then, 4×10^5 CHO/dhfr^− cells (obtained from ATCC) were inoculated on a 60 mm Petri dish. After culturing the cells in Ham's F-12 medium (Nissui Seiyaku Co., Ltd.) supplemented with 10% fetal bovine serum (BIO WHITTAKER, Inc.) at 37° C. for 2 days in 5% carbon dioxide gas, […] of the liposomes were dropwise added to the cells on the Petri dish. After culturing the cells at 37° C. for 6 hours in 5% carbon dioxide gas, the cells were washed twice with serum-free Ham's F-12 medium and 3 mL of 15% glycerol was added to the cells on the Petri dish followed by treatment for 2 minutes. The cells were again washed twice with serum-free Ham's F-12 medium followed by incubation in Ham's F-12 medium supplemented with 10% fetal bovine serum at 37° C. for 15 hours in 5% carbon dioxide gas. The cells were dispersed by trypsin treatment to recover from the Petri dish. The recovered cells were inoculated on a 6-well plate in 1.25×10^4 cells/well and incubation was initiated at 37° C. in Dulbecco's modified Eagle medium (DMEM) medium (Nissui Seiyaku Co., Ltd.) containing 10% dialyzed fetal bovine serum (JRH BIOSCIENCES, Inc.) in 5% carbon dioxide gas. The plasmid-transfected CHO transformants grew in the medium but the non-transfected cells gradually died, accordingly the medium was exchanged on Days 1 and 2 after the initiation of incubation to remove the cells died. Approximately 20 colonies of the CHO transformants that kept growing on Days 8 to 10 after the incubation were isolated. From the cells in these colonies, cells showing high reactivity with the ligand peptide metastin (hereinafter merely referred to as hOT7T175/CHO) were selected to provide for the following experiment.
# The intracellular Ca ion level-increasing activity of the synthetic peptide in hOT7T175/CHO was determined using FLIPR (Molecular Devices, Inc.).
# hOT7T175/CHO was subcultured in DMEM supplemented with 10% dialyzed fetal bovine serum (hereinafter abbreviated as dFBS) (hereinafter referred to as 10% dFBS/DMEM) and provided for the experiment. The hOT7T175/CHO was suspended in 10% dFBS-DMEM in 15×10^4 cells/ml. The suspension was inoculated on a 96-well plate for FLIPR (Black Plate Clear Bottom, Coster, Inc.) at 200 μl/well (3.0×10^4 cells/200 μL/well), followed by incubation at 37° C. overnight in a 5% CO2 incubator (hereinafter referred to as the cell plate). Then, 21 ml of HANKS/HBSS (9.8 g of HANKS, 0.35 g of sodium hydrogencarbonate, 20 ml of 1M HEPES; after adjusting the pH to 7.4 with 1N sodium hydroxide, the mixture was sterilized by filtration), 210 μl of 250 mM Probenecid and 210 μl of fetal bovine serum (FBS) (HANKS/HBSS-Probenecid-FBS) were mixed.
# Furthermore, 2 vials of Fluo3-AM (50 μg/vial) were dissolved in 21 μL of dimethylsulfoxide and 21 μL of 20% Pluronic acid. The resulting solution was added to and mixed with 10 ml of the HANKS/HBSS-Probenecid-FBS described above. After the culture medium was removed, the mixture was dispensed onto the cell plate in 100 μl each/well, followed by incubation at 37° C. for an hour in a 5% CO2 incubator (pigment loading). The peptide was dissolved in dimethylsulfoxide in 1×10^−3 M. The peptide solution was diluted with HANKS/HBSS containing 2.5 mM Probenecid, 0.2% BSA and 0.1% CHAPS. […]
# T1 sequence (Q969F8 whole entry L364H): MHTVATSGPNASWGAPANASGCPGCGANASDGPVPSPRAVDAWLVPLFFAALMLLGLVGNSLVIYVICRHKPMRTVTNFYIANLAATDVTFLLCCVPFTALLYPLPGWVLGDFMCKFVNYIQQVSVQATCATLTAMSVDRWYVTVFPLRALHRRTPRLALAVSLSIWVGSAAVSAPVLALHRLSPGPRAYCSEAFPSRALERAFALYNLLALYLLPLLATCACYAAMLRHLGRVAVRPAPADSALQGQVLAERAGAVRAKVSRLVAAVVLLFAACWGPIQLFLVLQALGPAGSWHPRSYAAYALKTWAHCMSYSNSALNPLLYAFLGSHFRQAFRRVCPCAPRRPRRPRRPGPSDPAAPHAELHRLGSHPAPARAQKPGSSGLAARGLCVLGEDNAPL
row,Specific Activity: intracellular Ca ion level-increasing activity [specific activity to Metastin (1-54)],Compound
1,1.4,"CNC(=N)NCCC[C@H](NC(=O)[C@H](CC(C)C)NC(=O)NNC(=O)[C@H](Cc1ccccc1)NC(=O)[C@@H](NC(=O)[C@H](CC(N)=O)NC(=O)[C@@H](CCC(N)=O)NC(=O)[C@@H](Cc1ccc(O)cc1)NC(C)=O)[C@@H](C)O)C(=O)N[C@@H](Cc1c[nH]c2ccccc12)C(N)=O [Compound No. 738, Ac-D-Tyr-D-Gln-Asn-Thr-Phe-AzaGly-Leu-Arg(Me)-Trp-NH2] (Ac-[dY][dQ]NTF[azaGly]L[Arg(Me)]W-NH2)"
2,2.3,"CNC(=N)NCCC[C@H](NC(=O)[C@H](CC(C)C)NC(=O)NNC(=O)[C@H](Cc1ccccc1)NC(=O)[C@@H](NC(=O)[C@H](CC(N)=O)NC(=O)[C@H](C)NC(=O)[C@@H](Cc1ccc(O)cc1)NC(C)=O)[C@@H](C)O)C(=O)N[C@@H](Cc1c[nH]c2ccccc12)C(N)=O [Compound No. 742, Ac-D-Tyr-Ala-Asn-Thr-Phe-AzaGly-Leu-Arg(Me)-Trp-NH2] (Ac-[dY]ANTF[azaGly]L[Arg(Me)]W-NH2)"
3,3.4,"CNC(=N)NCCC[C@H](NC(=O)[C@H](CC(C)C)NC(=O)NNC(=O)[C@H](Cc1ccccc1)NC(=O)[C@@H](NC(=O)[C@H](CC(N)=O)NC(=O)[C@H](CC(C)C)NC(=O)[C@@H](Cc1ccc(O)cc1)NC(C)=O)[C@@H](C)O)C(=O)N[C@@H](Cc1c[nH]c2ccccc12)C(N)=O [Compound No. 743, Ac-D-Tyr-Leu-Asn-Thr-Phe-AzaGly-Leu-Arg(Me)-Trp-NH2] (Ac-[dY]LNTF[azaGly]L[Arg(Me)]W-NH2)"
4,2.4,"CNC(=N)NCCC[C@H](NC(=O)[C@H](CC(C)C)NC(=O)NNC(=O)[C@H](Cc1ccccc1)NC(=O)[C@@H](NC(=O)[C@H](CC(N)=O)NC(=O)[C@H](CO)NC(=O)[C@@H](Cc1ccc(O)cc1)NC(C)=O)[C@@H](C)O)C(=O)N[C@@H](Cc1c[nH]c2ccccc12)C(N)=O [Compound No. 744, Ac-D-Tyr-Ser-Asn-Thr-Phe-AzaGly-Leu-Arg(Me)-Trp-NH2] (Ac-[dY]SNTF[azaGly]L[Arg(Me)]W-NH2)"
5,3.0,"CNC(=N)NCCC[C@H](NC(=O)[C@H](CC(C)C)NC(=O)NNC(=O)[C@H](Cc1ccccc1)NC(=O)[C@@H](NC(=O)[C@H](CC(N)=O)NC(=O)[C@H](CCCCN)NC(=O)[C@@H](Cc1ccc(O)cc1)NC(C)=O)[C@@H](C)O)C(=O)N[C@@H](Cc1c[nH]c2ccccc12)C(N)=O [Compound No. 745, Ac-D-Tyr-Lys-Asn-Thr-Phe-AzaGly-Leu-Arg(Me)-Trp-NH2] (Ac-[dY]KNTF[azaGly]L[Arg(Me)]W-NH2)"
6,2.2,"CNC(=N)NCCC[C@H](NC(=O)[C@H](CC(C)C)NC(=O)NNC(=O)[C@H](Cc1ccccc1)NC(=O)[C@@H](NC(=O)[C@H](CC(N)=O)NC(=O)[C@H](CCC(=O)O)NC(=O)[C@@H](Cc1ccc(O)cc1)NC(C)=O)[C@@H](C)O)C(=O)N[C@@H](Cc1c[nH]c2ccccc12)C(N)=O [Compound No. 746, Ac-D-Tyr-Glu-Asn-Thr-Phe-AzaGly-Leu-Arg(Me)-Trp-NH2] (Ac-[dY]ENTF[azaGly]L[Arg(Me)]W-NH2)"
7,2.6,"CNC(=N)NCCC[C@H](NC(=O)[C@H](CC(C)C)NC(=O)NNC(=O)[C@H](Cc1ccccc1)NC(=O)[C@@H](NC(=O)[C@H](CC(N)=O)NC(=O)CCNC(=O)[C@@H](Cc1ccc(O)cc1)NC(C)=O)[C@@H](C)O)C(=O)N[C@@H](Cc1c[nH]c2ccccc12)C(N)=O [Compound No. 747, Ac-D-Tyr-β-Ala-Asn-Thr-Phe-AzaGly-Leu-Arg(Me)-Trp-NH2] (Ac-[dY][βAla]NTF[azaGly]L[Arg(Me)]W-NH2)"

# Further lines, the compound ahead of its results:
row,Compound,Specific Activity: intracellular Ca ion level-increasing activity [specific activity to Metastin (1-54)]
1,"CNC(=N)NCCC[C@H](NC(=O)[C@H](CC(C)C)NC(=O)NNC(=O)[C@H](Cc1ccccc1)NC(=O)[C@@H](NC(=O)[C@H](CC(N)=O)NC(=O)[C@@H](Cc1cnc[nH]1)NC(=O)[C@@H](Cc1ccc(O)cc1)NC(C)=O)[C@@H](C)O)C(=O)N[C@@H](Cc1c[nH]c2ccccc12)C(N)=O [Compound No. 739, Ac-D-Tyr-D-His-Asn-Thr-Phe-AzaGly-Leu-Arg(Me)-Trp-NH2] (Ac-[dY][dH]NTF[azaGly]L[Arg(Me)]W-NH2)",1.6
2,"CNC(=N)NCCC[C@H](NC(=O)[C@H](CC(C)C)NC(=O)NNC(=O)[C@H](Cc1ccccc1)NC(=O)[C@@H](NC(=O)[C@H](CCN)NC(=O)[C@@H](Cc1c[nH]c2ccccc12)NC(=O)[C@@H](Cc1ccc(O)cc1)NC(C)=O)[C@@H](C)O)C(=O)N[C@@H](Cc1c[nH]c2ccccc12)C(N)=O [Compound No. 740, Ac-D-Tyr-D-Trp-Dab-Thr-Phe-AzaGly-Leu-Arg(Me)-Trp-NH2] (Ac-[dY][dW][Dab]TF[azaGly]L[Arg(Me)]W-NH2)",1.1
3,"CNC(=N)NCCC[C@H](NC(=O)[C@H](CC(C)C)NC(=O)NNC(=O)[C@H](Cc1ccc(Cl)cc1)NC(=O)[C@@H](NC(=O)[C@H](CC(N)=O)NC(=O)[C@@H](Cc1c[nH]c2ccccc12)NC(=O)[C@@H](Cc1ccc(O)cc1)NC(C)=O)[C@@H](C)O)C(=O)N[C@@H](Cc1c[nH]c2ccccc12)C(N)=O [Compound No. 748, Ac-D-Tyr-D-Trp-Asn-Thr-Phe(4Cl)-AzaGly-Leu-Arg(Me)-Trp-NH2] (Ac-[dY][dW]NT[Phe(4-Cl)][azaGly]L[Arg(Me)]W-NH2)",0.4
4,"CNC(=N)NCCC[C@H](NC(=O)[C@H](CC(C)C)NC(=O)NNC(=O)[C@H](Cc1ccccc1F)NC(=O)[C@@H](NC(=O)[C@H](CC(N)=O)NC(=O)[C@@H](Cc1c[nH]c2ccccc12)NC(=O)[C@@H](Cc1ccc(O)cc1)NC(C)=O)[C@@H](C)O)C(=O)N[C@@H](Cc1c[nH]c2ccccc12)C(N)=O [Compound No. 749, Ac-D-Tyr-D-Trp-Asn-Thr-Phe(2F)-AzaGly-Leu-Arg(Me)-Trp-NH2] (Ac-[dY][dW]NT[Phe(2-F)][azaGly]L[Arg(Me)]W-NH2)",0.5
5,"CNC(=N)NCCC[C@H](NC(=O)[C@H](CC(C)C)NC(=O)NNC(=O)[C@H](Cc1cccc(F)c1)NC(=O)[C@@H](NC(=O)[C@H](CC(N)=O)NC(=O)[C@@H](Cc1c[nH]c2ccccc12)NC(=O)[C@@H](Cc1ccc(O)cc1)NC(C)=O)[C@@H](C)O)C(=O)N[C@@H](Cc1c[nH]c2ccccc12)C(N)=O [Compound No. 750, Ac-D-Tyr-D-Trp-Asn-Thr-Phe(3F)-AzaGly-Leu-Arg(Me)-Trp-NH2] (Ac-[dY][dW]NT[Phe(3-F)][azaGly]L[Arg(Me)]W-NH2)",1.0
6,"CNC(=N)NCCC[C@H](NC(=O)[C@H](CC(C)C)NC(=O)NNC(=O)[C@H](Cc1ccccc1F)NC(=O)[C@@H](NC(=O)[C@H](CC(N)=O)NC(=O)[C@H](CCCCN)NC(=O)[C@@H](Cc1ccc(O)cc1)NC(C)=O)[C@@H](C)O)C(=O)N[C@@H](Cc1c[nH]c2ccccc12)C(N)=O [Compound No. 754, Ac-D-Tyr-Lys-Asn-Thr-Phe(2F)-AzaGly-Leu-Arg(Me)-Trp-NH2] (Ac-[dY]KNT[Phe(2-F)][azaGly]L[Arg(Me)]W-NH2)",3.1
